# Test results published in patent US20090087440A1, “Methods for Treating Cancer” (SCHERING CORPORATION, priority 2001, published 2009).
# “Also recorded” adds a separate entry of the source.
# Assays:
# C26-6CK tumor [1] = assay: Therapeutic effect of CpG 1668+indomethacin in the C26-6CK tumor model (Example X); type: in vivo, BALB/c mice; details: C26-6CK s.c.; 5 μg CpG 1668 intra-tumorally Day 7, 14, 21; indomethacin 5 μg/ml in drinking water day 5 to 28
# Bone marrow-derived DC = assay: Activation of bone marrow-derived DC cultured with C26 tumor supernatant (Example IX); type: cell-based, mouse; details: 10% v/v supernatant, indomethacin 1 μg/ml during supernatant preparation, anti-IL10R 10 μg/ml
# Procedure: Bone marrow-derived DCs were obtained by culture of bone marrow progenitors with GM-CSF and TNFα for 5 days in the presence or absence of 10% v/v of a supernatant from C26 tumors. To prepare tumor supernatant, 0.5 cm C26 tumors grown subcutaneously in BALB/c mice were excised and minced, then cultured for 48 hours in 10 ml DMEM. The resulting supernatant was filtered at 0.2 μm and frozen before use. This supernatant contained 0.25 ng/ml IL-10 and 50 ng/ml PGE2, as determined by specific ELISA (R&D Systems). In order to inhibit PGE2 synthesis in the supernanant, the inhibitor of cyclo-oxygenase indomethacin (Sigma) was added at 1 μg/ml during the 48 h culture.
# After 5 days, bone-marrow DC were activated with different combinations of optimal doses of LPS, IFNγ and anti-CD40 antibody in the presence or absence of 10 μg/ml anti-IL10R antibody. The activation of DC was measured by their expression of the co-stimulatory molecules CD40 and CD86 by FACS as well as by the production of IL-12 as detected by intra-cellular staining.
# [2] = tested on: C26-6CK tumor-infiltrating dendritic cells; assay: IL-12 p70 and TNFα ELISA in supernatants of activated C26-6CK TIDC (Example II); type: cell-based, mouse
# C26-6CK tumor [3] = assay: Therapeutic effect in the C26-6CK tumor model (Example V)
# Procedure: • 1×10^5 C26-6CK tumor cells were implanted s.c. at Day 0 in groups of seven 8 week-old female BALB/c mice and treated as follow: • 10 μg of CpG 1668 were injected peri- (when tumor too small) or intratumorally at Day 7, 14, and 21. • 250 μg anti-IL10R purified antibody were injected intraperitoneally twice a week starting at Day 7 (stop Day 24).
# (§1) Tumor development was assessed three times a week by palpation and tumors measured using a caliper with tumor volume=I^2×L×0.4, I being the small diameter and L the large diameter. Mice were sacrificed when tumors exceeded 1500 mm^3 or for humane criteria.
# [4] = tested on: C26-6CK tumor-infiltrating dendritic cells; assay: Mixed leukocyte reaction with activated C26-6CK TIDC (Example III); type: cell-based, mouse; details: overnight activation, 5 days with allogeneic T cells
# C26 tumor = assay: Therapeutic effect in the C26 tumor model (Example VI); type: in vivo, BALB/c mice
# From the text: Control antibody was purified GL113 antibody.
# B16F0 melanoma tumor = assay: Therapeutic effect in the B16F0 melanoma tumor model (Example VII)
# Procedure: • 5×10^4 B16F0 tumor cells were implanted s.c. at Day 0 in groups of seven 8 week-old female C57BL/6 mice and treated as follow: • 5 μg of CpG 1668 were injected intra-tumorally at Day 7, 14, and 21. • 250 μg anti-IL10R purified antibody were injected intraperitoneally at Day 7, 14, and 21. Control antibody was purified GL113 antibody.
# as §1
# [5] = tested on: C26-6CK tumor-infiltrating dendritic cells; assay: Activation of C26-6CK tumor-infiltrating DC with LPS, IFNγ and anti-CD40, compared with bone marrow-derived DC (Example I); type: cell-based, mouse
Compound,mice that did not develop tumor (C26-6CK tumor [1]),"relief of the inhibition of DC activation by C26 tumor supernatant (CD40, CD86, IL-12 expression) (Bone marrow-derived DC)","IL-12 p70 production in culture supernatants (ELISA) ([2]; C26-6CK TIDC, GM-CSF 10 ng/ml, 24 h, CpG 1668 5 μg/ml, anti-IL10R 10 μg/ml)",activating tumor-infiltrating dendritic cells ([2]; Examples II and III),"mice that did not develop a tumor (C26-6CK tumor [3]; C26-6CK s.c., 10 μg CpG 1668 peri- or intratumorally Day 7, 14, 21)","mean volume of tumors versus control group (C26-6CK tumor [3]; C26-6CK s.c., after three weeks)",overall anti-tumor effect (C26-6CK tumor [3]; C26-6CK tumor model),MLR stimulatory capacity of tumor-infiltrating DC (thymidine incorporation) [4],overall anti-tumor effect (C26 tumor),overall anti-tumor effect (B16F0 melanoma tumor),"response of tumor-infiltrating DC to stimulation (co-stimulatory molecules, MLR, IL-12 and TNFα) [5]"
COc1ccc2c(c1)c(CC(=O)O)c(C)n2C(=O)c1ccc(Cl)cc1 [indomethacin],1/7,relieved partially,–,–,–,–,–,–,–,–,–
"CpG 1668: TLR-9 ligand in the mouse, sequence TCC-ATG-ACG-TTC-CTG-ATG-CT (SEQ ID NO: 5), MWG Biotech (TCCATGACGTTCCTGATGCT; DNA, all phosphorothioate, methylation of C not given here)",1/7,–,does not induce,marginal effect,1/7,smaller than in the control group,minor effect; also recorded: marginal effect,minimally enhanced,marginal effect,marginal effect,–
IFNγ: cytokine IFNγ (R&D Systems),–,–,–,–,–,–,–,–,–,–,did not respond
